# Data: PubChem BioAssay (NCI)
#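 Abbreviation: GI50, concentration required for 50% inhibition of growth. TGI denotes the concentration required for complete inhibition of growth.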
# What was measured:
# Experiment in all cases: inhibition of tumour cell growth, NCI panel, 384-well format
# [1] = system: SF-539 CNS
# [2] = system: SNB-75 CNS
# [3] = system: MDA-MB-231 breast
# [4] = system: NCI-H226 lung
# [5] = system: MDA-MB-468 breast
# [6] = system: TK-10 renal
# [7] = system: SNB-19 CNS
# [8] = system: PC-3 prostate
# [9] = system: CCRF-CEM leukemia
# [10] = system: SF-295 CNS
# [11] = system: NCI-H23 lung
# [12] = system: OVCAR-5 ovarian
# [13] = system: T-47D breast
# [14] = system: BT-549 breast
# [15] = system: UACC-62 melanoma
# [16] = system: COLO 205 colon
# [17] = system: NCI-H460 NSCLC
# [18] = system: A549 NSCLC
# [19] = system: UO-31 renal
# [20] = system: HCT-116 colon
# [21] = system: OVCAR-4 ovarian
# [22] = system: M14 melanoma
# [23] = system: DU-145 prostate
# [24] = system: MDA-MB-435 melanoma
# [25] = system: SK-MEL-5 melanoma
# [26] = system: CAKI-1 renal
# [27] = system: HT29 colon
# [28] = system: SK-MEL-28 melanoma
# [29] = system: SF-268 CNS
# [30] = system: MOLT-4 leukemia
# [31] = system: HS 578T breast
# [32] = system: HOP-62 NSCLC
# [33] = system: MCF7 breast
# [34] = system: NCI/ADR-RES ovarian
# [35] = system: MALME-3M melanoma
# [36] = system: OVCAR-3 ovarian
# [37] = system: OVCAR-8 ovarian
# [38] = system: A498 renal
# [39] = system: HOP-92 NSCLC
# [40] = system: HCT-15 colon
# [41] = system: NCI-H522 lung
# [42] = system: SK-OV-3 ovarian
# [43] = system: UACC-257 melanoma
# [44] = system: EKVX NSCLC
# [45] = system: SN12C renal
# [46] = system: ACHN renal
# [47] = system: SW-620 colon
# [48] = system: U251 glioblastoma
# [49] = system: IGROV1 ovarian
# [50] = system: 786-0 renal
# [51] = system: K-562 leukemia
# [52] = system: LOX IMVI melanoma
# [53] = system: KM12 colon
# [54] = system: HL-60(TB) leukemia
# [55] = system: HCC-2998 colon
# [56] = system: NCI-H322M lung
# [57] = system: RPMI-8226 leukemia
# [58] = system: RXF 393 renal
structure (smiles),measurement,setting,value
CC(=O)N1CCN(CCOc2ccc(C3CCN(C4=Nn5c(nnc5C(F)(F)F)CC4)CC3)cc2)CC1,GI50,[1],13.5 µM
same,TGI,[1],> 100 µM
same,GI50,[2],8.08 µM
same,TGI,[2],76.5 µM
same,GI50,[3],5.58 µM
same,TGI,[3],> 100 µM
same,GI50,[4],15 µM
same,TGI,[4],> 100 µM
same,GI50,[5],1720 nM
same,TGI,[5],10 µM
same,GI50,[6],20.9 µM
same,TGI,[6],> 100 µM
same,GI50,[7],17.9 µM
same,TGI,[7],83.4 µM
same,GI50,[8],9.08 µM
same,TGI,[8],> 100 µM
same,GI50,[9],4.06 µM
same,TGI,[9],19.3 µM
same,GI50,[10],23.6 µM
same,TGI,[10],> 100 µM
same,GI50,[11],8.08 µM
same,TGI,[11],> 100 µM
same,GI50,[12],15.1 µM
same,TGI,[12],> 100 µM
same,GI50,[13],1160 nM
same,TGI,[13],7.99 µM
same,GI50,[14],5.94 µM
same,TGI,[14],39.8 µM
same,GI50,[15],4.27 µM
same,TGI,[15],88.8 µM
same,GI50,[16],15.2 µM
same,TGI,[16],> 100 µM
same,GI50,[17],13.3 µM
same,TGI,[17],36.6 µM
same,GI50,[18],14.2 µM
same,TGI,[18],> 100 µM
same,GI50,[19],22.9 µM
same,TGI,[19],> 100 µM
same,GI50,[20],13.4 µM
same,TGI,[20],> 100 µM
same,GI50,[21],11.8 µM
same,TGI,[21],71.7 µM
same,GI50,[22],10.9 µM
same,TGI,[22],> 100 µM
same,GI50,[23],32 µM
same,TGI,[23],> 100 µM
same,GI50,[24],32.8 µM
same,TGI,[24],> 100 µM
same,GI50,[25],4.83 µM
same,TGI,[25],19.7 µM
same,GI50,[26],3.53 µM
same,TGI,[26],> 100 µM
same,GI50,[27],10.4 µM
same,TGI,[27],> 100 µM
same,GI50,[28],24.2 µM
same,TGI,[28],> 100 µM
same,GI50,[29],2830 nM
same,TGI,[29],12.7 µM
same,GI50,[30],4.72 µM
same,TGI,[30],21.4 µM
same,GI50,[31],4.78 µM
same,TGI,[31],31.2 µM
same,GI50,[32],4.71 µM
same,TGI,[32],25.9 µM
same,GI50,[33],3.42 µM
same,TGI,[33],83.1 µM
same,GI50,[34],24.1 µM
same,TGI,[34],75.6 µM
same,GI50,[35],11.6 µM
same,TGI,[35],75.2 µM
same,GI50,[36],7.08 µM
same,TGI,[36],35.3 µM
same,GI50,[37],12.3 µM
same,TGI,[37],60 µM
same,GI50,[38],14.7 µM
same,TGI,[38],77.2 µM
same,GI50,[39],14.5 µM
same,TGI,[39],> 100 µM
same,GI50,[40],18.1 µM
same,TGI,[40],> 100 µM
same,GI50,[41],2900 nM
same,TGI,[41],20.1 µM
same,GI50,[42],6.93 µM
same,TGI,[42],31.8 µM
same,GI50,[43],4.87 µM
same,TGI,[43],26.2 µM
same,GI50,[44],16.8 µM
same,TGI,[44],> 100 µM
same,GI50,[45],22.5 µM
same,TGI,[45],> 100 µM
same,GI50,[46],15.3 µM
same,TGI,[46],62.8 µM
same,GI50,[47],> 100 µM
same,TGI,[47],> 100 µM
same,GI50,[48],16.5 µM
same,TGI,[48],67.3 µM
same,GI50,[49],6.07 µM
same,TGI,[49],54.1 µM
same,GI50,[50],8.6 µM
same,TGI,[50],69.3 µM
same,GI50,[51],3.66 µM
same,TGI,[51],> 100 µM
same,GI50,[52],3.75 µM
same,TGI,[52],17.9 µM
same,GI50,[53],12 µM
same,TGI,[53],> 100 µM
same,GI50,[54],3.79 µM
same,TGI,[54],14.7 µM
same,GI50,[55],6.17 µM
same,TGI,[55],24.2 µM
same,GI50,[56],13 µM
same,TGI,[56],> 100 µM
same,GI50,[57],3.34 µM
same,TGI,[57],13.4 µM
same,GI50,[58],5.97 µM
same,TGI,[58],27.5 µM
